The results in this text go back to PubChem BioAssay AID330 (DTP/NCI, 2004).

The test system of the assay is P388 leukemia ip, CD2F1 mice, survival T/C. Put plainly: NCI In Vivo Anticancer Drug Screen. Data for tumor model P388 Leukemia (intraperitoneal) in CD2F1 (CDF1) mice. The following applies: endpoint: median survival time, higher = longer survival. In short, it runs like this: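 Mice carrying the transplanted tumor received test compound or vehicle. Survival was recorded in each group, and the value is the treated-group measurement divided by that of the vehicle-treated control group.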

[1] abbreviates: dose: 6.25 mg/kg/injection, schedule: Q01DX009 (ip), vehicle: Klucel (hydroxypropylcellulose) (HPC).
[2] abbreviates: dose: 12.5 mg/kg/injection, schedule: Q01DX009 (ip), vehicle: Klucel (hydroxypropylcellulose) (HPC).
Setting [3] is: dose: 50.0 mg/kg/injection, schedule: Q01DX005 (ip), vehicle: saline with Tween-80.
Setting [4] is: dose: 100.0 mg/kg/injection, schedule: Q01DX005 (ip), vehicle: saline with Tween-80.
The mark [5] stands for this setting: dose: 12.5 mg/kg/injection, schedule: Q01DX009 (ip), vehicle: saline.

Molecules are shown by their SMILES. “And” between values parts separate entries of the source, which are not always exact repeats. Equal values may be shown once. Inconclusive results and toxic doses are left out. Peptide text beside a SMILES is read from it. * marks the point of attachment. Trt = c1ccc(C(c2ccccc2)(c2ccccc2)*)cc1; Benzhydryl = c1ccc(C(c2ccccc2)*)cc1; Cbz = O=C(OCc1ccccc1)*; OtBu = CC(C)(C)O*

On to `C/C(=N\NC(N)=S)c1ccccc1`, for which the T/C is, setting by setting: (dose: 3.12 mg/kg/injection, schedule: Q01DX009 (ip), vehicle: Klucel (hydroxypropylcellulose) (HPC)) 106 % of control; under setting [1], 111 % of control; under setting [2], 114 % of control.

For the compound `NC(CNC(=O)CBr)C(=O)O` (stereo not drawn), the T/C (dose: 6.25 mg/kg/injection, schedule: Q01DX005 (ip), vehicle: water) was 117 % of control and 118 % of control; the T/C (dose: 100.0 mg/kg/injection, schedule: Q01DX005 (ip), vehicle: water) was 152 % of control.

With `CC(C)C(NC(=O)[C@H](C(C)C)N1C(=O)c2ccccc2C1=O)C(=O)O` (stereo partly drawn), the T/C is, setting by setting: under setting [3], 88 % of control; under setting [4], 96 % of control.

As for `CCn1c2ccc(C(=O)CCCN3CCCCC3)cc2c2cc(C(=O)CCCN3CCCCC3)ccc21`, the T/C runs as follows: (dose: 6.25 mg/kg/injection, schedule: Q01DX009 (ip), vehicle: saline) 100 % of control; under setting [5], 103 % of control and 113 % of control and 97 % of control; (dose: 25.0 mg/kg/injection, schedule: Q01DX009 (ip), vehicle: saline) 102 % of control and 121 % of control and 122 % of control.

For the compound `O=C1OCC[C@@H]1O`, the T/C is, setting by setting: (dose: 60.0 mg/kg/injection, schedule: Q01DX005 (ip), vehicle: saline) 101 % of control; (dose: 120.0 mg/kg/injection, schedule: Q01DX005 (ip), vehicle: saline) 101 % of control; (dose: 240.0 mg/kg/injection, schedule: Q01DX005 (ip), vehicle: saline) 97 % of control.

`COCC(=O)C1(O)Cc2c(O)c3c(c(O)c2C(O)C1)C(=O)c1c(OC)cccc1C3=O` (stereo not drawn): the T/C (dose: 1.56 mg/kg/injection, schedule: Q01DX009 (ip), vehicle: other) is 92 % of control; the T/C (dose: 3.13 mg/kg/injection, schedule: Q01DX009 (ip), vehicle: other) is 101 % of control; the T/C (dose: 6.25 mg/kg/injection, schedule: Q01DX009 (ip), vehicle: other) is 101 % of control; the T/C (dose: 12.5 mg/kg/injection, schedule: Q01DX009 (ip), vehicle: other) is 94 % of control; the T/C (dose: 25.0 mg/kg/injection, schedule: Q01DX009 (ip), vehicle: other) was 92 % of control.

Regarding `COc1ccc(-n2c(C)c(COC(C)=O)c(COC(C)=O)c2C)cc1`, the T/C under setting [5] is 157 % of control and 163 % of control.

Take `CCCCCCCCCCCCCCCc1nc(SCC(=O)OC)n[nH]1`: the T/C runs as follows: (dose: 60.0 mg/kg/injection, schedule: Q01DX005 (ip), vehicle: saline with Tween-80) 99 % of control; (dose: 120.0 mg/kg/injection, schedule: Q01DX005 (ip), vehicle: saline with Tween-80) 99 % of control; (dose: 240.0 mg/kg/injection, schedule: Q01DX005 (ip), vehicle: saline with Tween-80) 98 % of control.

Turning to `CC(C)(C)OC(=O)CNC(=O)C(Cc1ccccc1)NC(=O)C(CSC(c1ccccc1)(c1ccccc1)c1ccccc1)NC(=O)CNC(=O)C(Cc1ccccc1)NC(=O)CNC(=O)C(CSC(c1ccccc1)c1ccccc1)NC(=O)C(CSC(c1ccccc1)(c1ccccc1)c1ccccc1)NC(=O)OCc1ccccc1` (stereo not drawn) (Cbz-C(Trt)C(Benzhydryl)GFGC(Trt)FG-OtBu; configuration not given here), the T/C is, setting by setting: (dose: 60.0 mg/kg/injection, schedule: Q01DX005 (ip), vehicle: Klucel (hydroxypropylcellulose) (HPC)) 100 % of control; (dose: 120.0 mg/kg/injection, schedule: Q01DX005 (ip), vehicle: Klucel (hydroxypropylcellulose) (HPC)) 98 % of control.

In the case of `COc1ccc(/C(C[P+](c2ccccc2)(c2ccccc2)c2ccccc2)=N/OC(C)(C)OC)cc1`, the T/C is, setting by setting: under setting [1], 98 % of control; under setting [2], 100 % of control; (dose: 25.0 mg/kg/injection, schedule: Q01DX009 (ip), vehicle: Klucel (hydroxypropylcellulose) (HPC)) 106 % of control; (dose: 50.0 mg/kg/injection, schedule: Q01DX009 (ip), vehicle: Klucel (hydroxypropylcellulose) (HPC)) 101 % of control.

For `CC(C)C(NC(=O)C(CCCCN)N(C(=O)OCc1ccccc1)C(=O)OCc1ccccc1)C(=O)O` (stereo not drawn), the T/C is 100 % of control under setting [3]; 93 % of control under setting [4]; 92 % of control (dose: 200.0 mg/kg/injection, schedule: Q01DX005 (ip), vehicle: saline with Tween-80).

As for `O=C(N/N=C/c1ccc(O)cc1)c1ccc(OCc2nc3ccccc3[nH]2)cc1`, the T/C is 102 % of control (dose: 25.0 mg/kg/injection, schedule: Q01DX005 (ip), vehicle: Klucel (hydroxypropylcellulose) (HPC)); 96 % of control (dose: 50.0 mg/kg/injection, schedule: Q01DX005 (ip), vehicle: Klucel (hydroxypropylcellulose) (HPC)); 102 % of control (dose: 100.0 mg/kg/injection, schedule: Q01DX005 (ip), vehicle: Klucel (hydroxypropylcellulose) (HPC)); 96 % of control (dose: 200.0 mg/kg/injection, schedule: Q01DX005 (ip), vehicle: Klucel (hydroxypropylcellulose) (HPC)).

With `C=CC(C(=O)O)S(=O)(=O)O` (stereo not drawn), the T/C was 112 % of control (dose: 20.0 mg/kg/injection, schedule: Q01DX009 (ip), vehicle: saline with Tween-80) and 103 % of control (dose: 40.0 mg/kg/injection, schedule: Q01DX009 (ip), vehicle: saline with Tween-80).

Consider `O=C1OCC2CC3c4ccccc4C12c1ccccc13` (stereo not drawn), for which the T/C is 100 % of control (dose: 25.0 mg/kg/injection, schedule: Q01DX001 (ip), vehicle: Klucel (hydroxypropylcellulose) (HPC)); 94 % of control (dose: 50.0 mg/kg/injection, schedule: Q01DX001 (ip), vehicle: Klucel (hydroxypropylcellulose) (HPC)); 100 % of control (dose: 100.0 mg/kg/injection, schedule: Q01DX001 (ip), vehicle: Klucel (hydroxypropylcellulose) (HPC)); 103 % of control (dose: 200.0 mg/kg/injection, schedule: Q01DX001 (ip), vehicle: Klucel (hydroxypropylcellulose) (HPC)).

Consider `CC(C)(C)SC(=O)CCl`, for which the T/C (dose: 100.0 mg/kg/injection, schedule: Q04DX003 (ip), vehicle: saline with Tween-80) is 116 % of control and the T/C (dose: 200.0 mg/kg/injection, schedule: Q04DX003 (ip), vehicle: saline with Tween-80) is 89 % of control.
